The supplement of paper PMC8633005

Experiments:
Experiment in all cases: drug sensitivity score (DSS) (DSS (unitless, 0-50 scale)); higher = more sensitive (stronger viability inhibition); extreme values may be limits of the assay
Conditions in all cases: 72 h; culture: 2D
FM-MEL-2 = test system: FM-MEL-2
Procedure, shortened: (§1)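 A 527-compound oncology library was screened in 384-well plates against melanoma cell lines and patient-derived melanoma cultures grown in 2D, the cultures at 1000–1500 cells per well. Each compound, in DMSO or water, was applied at five concentrations over a 10,000-fold range and incubated for 72 h at 37 °C before CellTiter-Glo luminescence readout of viability. A drug sensitivity score, a modified area-under-curve measure, was calculated from curves fitted in the in-house Breeze software.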

Bowes = test system: Bowes
Procedure, shortened: as §1

FM-MEL-3 = test system: FM-MEL-3
Procedure, shortened: as §1

FM-MEL-6 = test system: FM-MEL-6
Procedure, shortened: as §1

SK-MEL-2 = test system: SK-MEL-2
Procedure, shortened: as §1

SK-MEL-28 = test system: SK-MEL-28
Procedure, shortened: as §1

WM852 = test system: WM852
Procedure, shortened: as §1

WM165 = test system: WM165
Procedure, shortened: as §1

Compound	drug sensitivity score (FM-MEL-2)	drug sensitivity score (Bowes)	drug sensitivity score (FM-MEL-3)	drug sensitivity score (FM-MEL-6)	drug sensitivity score (SK-MEL-2)	drug sensitivity score (SK-MEL-28)	drug sensitivity score (WM852)	drug sensitivity score (WM165)
Cc1cc(-c2nc(-c3ccc(OC(F)(F)F)cc3)no2)nn1Cc1ccnc(N2CCN(C3CC3)CC2)c1 [BAY 87-2243]	0.2	12.3	6.6	0	0	1.6	25.9	5.5
CNC(=O)CN1CCC(Oc2cc3c(Nc4cccc(Cl)c4F)ncnc3cc2OC)CC1 [Sapitinib]	0	0	0	0	0	0	0	0
Cc1cn(-c2cc(NC(=O)c3ccc(C)c(Nc4nccc(-c5cnccn5)n4)c3)cc(C(F)(F)F)c2)cn1 [Radotinib]	5	0	8.6	2.6	0	0	0	0
C[C@@H]1C=C2C(=O)O[C@@H]3CC[C@H](C1)[C@]23O [Galiellalactone]	2.9	8.4	5.2	0.7	0	5.8	5.1	6.9
CCCCCCCCc1ccc(CCC(N)(CO)CO)cc1 [Fingolimod]	6.2	8.5	7.5	6.4	5.7	6.2	7	6.3
CN1CCN(CCOc2cc(OC3CCOCC3)c3c(Nc4c(Cl)ccc5c4OCO5)ncnc3c2)CC1 [Saracatinib]	2.3	0.3	0.8	0.9	0	4	1.8	2.8
COc1cc(NS(C)(=O)=O)ccc1Nc1c2ccccc2nc2ccccc12 [Amsacrine]	4.9	0.5	5.8	5.5	2.8	6.4	0	16.9
Cc1nc2cccc(N)c2c(=O)n1C1CCC(=O)NC1=O (configuration not stated) [CC122]	0	0	0.2	1.3	0	0	0	0
COc1c(OCCCN2CCOCC2)ccc2c1N=C(NC(=O)c1cnc(N)nc1)N1CCN=C21 [Copanlisib]	10.2	8.3	7.1	4.3	3.5	8.3	6.5	6.5
Cc1nc(C(=O)NCC(=O)O)c(O)c2ccc(Oc3ccccc3)cc12 [Roxadustat]	0	0	0	0	0	0	2.1	0
O=C1CN2Cc3c(ccc(Cl)c3Cl)N=C2N1 [Anagrelide]	0	9.6	1.8	0	0	0	0	0
Cc1cc(Nc2cc(CN3CCOCC3)c3nc(C)c(Cc4ccc(Cl)cc4F)n3n2)n[nH]1 [Gandotinib]	3	4.8	6.9	2.2	0	3.6	4	5.9
Cc1ncc(Cl)cc1NCc1ccc(C(=O)N[C@@H](CC2CCCC2)C(=O)NC2CC2)s1	0	0	4.6	0	0	0	0	0
O[C@H](C[C@H]1c2c(F)cccc2-c2cncn21)[C@H]1CC[C@H](O)CC1 [GDC-0919]	0.4	0.3	0.7	1.1	0	0.5	1.2	0
Nc1ncnc2c1nc(Cl)n2[C@@H]1O[C@H](CO)[C@@H](O)[C@H]1O [8-chloro-adenosine]	0.9	5.2	3.3	7.5	7.7	5.1	4.6	14.8
Nc1ccn([C@@H]2O[C@H](CO)[C@@H](O)[C@@H]2O)c(=O)n1 [Cytarabine]	1.9	0	9.3	7.2	2.4	12.1	0	15.7
CN1CCN(C2CCC(n3cc(-c4ccc(Oc5ccccc5)cc4)c4c(N)ncnc43)CC2)CC1 (configuration not stated)	6.6	10.1	7.7	7.2	5	8	9.2	9.4

Compound	drug sensitivity score (FM-MEL-2)	drug sensitivity score (Bowes)	drug sensitivity score (FM-MEL-3)	drug sensitivity score (FM-MEL-6)	drug sensitivity score (SK-MEL-2)	drug sensitivity score (SK-MEL-28)	drug sensitivity score (WM852)	drug sensitivity score (WM165)
Cc1cc2c(F)c(Oc3ncnn4cc(OC[C@@H](C)O)c(C)c34)ccc2[nH]1 [Brivanib]	0	0	0	0	0	0	0	0
Cc1ncc(-c2ccnc(Nc3ccc(S(C)(=O)=O)cc3)n2)n1C(C)C [AZD-5438]	2.2	10.7	4.7	7	4.2	9.9	6.2	10.6
CCN1CCN(c2ccc(Nc3cc(N(C)C(=O)Nc4c(Cl)c(OC)cc(OC)c4Cl)ncn3)cc2)CC1 [Infigratinib]	0	0	0	0	0	0	0	0
COc1cc2/c(=N/c3ccc(Br)cc3F)nc[nH]c2cc1OCC1CCN(C)CC1 [Vandetanib]	0	1.3	0	0.2	0	0.4	0	0
C[C@@H]1CN(Cc2ccc(F)cc2)[C@@H](C)CN1C(=O)c1cc2c(C(=O)C(=O)N(C)C)cn(C)c2cc1Cl [Talmapimod]	0	0	0	0	0	0	0	0
COc1ccc(S(=O)(=O)Nc2cccnc2Nc2ccc(O)cc2)cc1 [ABT-751]	4	11	5.7	9.2	9	5.7	8.9	10.3
O=C(NC1CCNCC1)c1n[nH]cc1NC(=O)c1c(Cl)cccc1Cl [AT7519]	7.7	21.4	12.8	19.3	15.1	10.5	15.3	20
CN1CCC(CNc2ccc3ncc(-c4cccc(OC(F)(F)F)c4)n3n2)CC1 [SGI-1776]	5.9	5.5	5.1	5.3	4.8	6.1	6.1	6.1
CC(C)NC[C@@H](C(=O)N1CCN(c2ncnc3c2[C@H](C)C[C@H]3O)CC1)c1ccc(Cl)cc1 [Ipatasertib]	2.1	0	0.3	0.9	0	1.7	0	2.2
CC[C@@H]1[C@H](F)C(=O)N[C@@H]1COc1nccc2cc(C(N)=O)c(OC)cc12	1.1	1.4	0.2	0	0	0	0.6	1.7
CO[C@H]1CC[C@H](N2C(=O)CNc3ncc(-c4ccc(C(C)(C)O)nc4)nc32)CC1 [CC-223]	7.4	4.1	5.1	5.9	3.1	5.2	4.2	7.1
CNS(=O)(=O)Nc1nccc(Cc2c(C)c3ccc(Oc4ncccn4)cc3oc2=O)c1F	6.3	0.6	10.7	0.2	4.2	3.2	0	3.2
O=c1[nH]c(=O)n([C@H]2C[C@H](O)[C@@H](CO)O2)cc1F [Floxuridine]	0.4	15.7	0	1.2	0	8	4.9	18.4
CC(C)c1cc(C(=O)N2Cc3ccc(CN4CCN(C)CC4)cc3C2)c(O)cc1O [Onalespib]	7.1	13.3	14.2	4.2	8	6.9	5.7	15
CNC(=O)c1ccc(C)c(-n2c(C)cc(OCc3ccc(F)cc3F)c(Br)c2=O)c1	0	0	0	0	0	0	0	0
CC[C@@H](C(=O)[C@@H](C)[C@@H](O)[C@H](C)[C@@H]1O[C@@H]([C@@H](CC)C(=O)O)CC[C@@H]1C)[C@H]1O[C@]2(C=C[C@@H](O)[C@]3(CC[C@@](C)([C@H]4CC[C@](O)(CC)[C@H](C)O4)O3)O2)[C@H](C)C[C@@H]1C [Salinomycin]	6.4	19.1	6.9	13.2	2.1	9.5	9.9	18.3
CO[C@H]1C[C@@H]2CC[C@@H](C)[C@@](O)(O2)C(=O)C(=O)N2CCCC[C@H]2C(=O)O[C@H]([C@H](C)C[C@@H]2CC[C@@H](OP(C)(C)=O)[C@H](OC)C2)CC(=O)[C@H](C)/C=C(\C)[C@@H](O)[C@@H](OC)C(=O)[C@H](C)C[C@H](C)/C=C/C=C/C=C/1C [Ridaforolimus]	0.9	0	0	2.7	0	3.8	0	7.6
